ChEMBL document CHEMBL1629422, “Synthesis and antimicrobial evaluation of some fused heterocyclic [1,2,4]triazolo[3,4-b][1,3,4]thiadiazole derivatives” (2010)
Values after ≈ are worked out from the molar mass of the structure shown.

Assays:
Type in all cases: functional
[1] = tested on: Staphylococcus aureus; experiment: Antimicrobial activity against Staphylococcus aureus ATCC 25923 after18 to 20 hrs by broth dilution method
[2] = tested on: Staphylococcus epidermidis; experiment: Antimicrobial activity against Staphylococcus epidermidis ATCC 14990 after18 to 20 hrs by broth dilution method
[3] = tested on: Enterococcus faecalis; experiment: Antimicrobial activity against Enterococcus faecalis ATCC 29212 after18 to 20 hrs by broth dilution method
[4] = tested on: Bacillus cereus; experiment: Antimicrobial activity against Bacillus cereus ATCC 13061 after18 to 20 hrs by broth dilution method
[5] = tested on: Escherichia coli; experiment: Antimicrobial activity against Escherichia coli ATCC 25922 after18 to 20 hrs by broth dilution method
[6] = tested on: Enterobacter cloacae; experiment: Antimicrobial activity against Enterobacter cloacae ATCC 49141 after18 to 20 hrs by broth dilution method
[7] = tested on: Citrobacter freundii; experiment: Antimicrobial activity against Citrobacter freundii ATCC 8090 after18 to 20 hrs by broth dilution method
[8] = tested on: Acinetobacter baumannii; experiment: Antimicrobial activity against Acinetobacter baumannii ATCC 19606 after18 to 20 hrs by broth dilution method
[9] = tested on: Pseudomonas aeruginosa; experiment: Antimicrobial activity against Pseudomonas aeruginosa ATCC 27853 after18 to 20 hrs by broth dilution method
[10] = tested on: Candida albicans; experiment: Antimicrobial activity against Candida albicans ATCC 90028 after 48 hrs by broth dilution method; details: ATCC 90028, 48 h

| MIC [1] [µg/mL] | MIC [2] [µg/mL] | MIC [3] [µg/mL] | MIC [4] [µg/mL] | MIC [5] [µg/mL] | MIC [6] [µg/mL] | MIC [7] [µg/mL] | MIC [8] [µg/mL] | MIC [9] [µg/mL] | MIC [10] [µg/mL] | SMILES |
| --- | --- | --- | --- | --- | --- | --- | --- | --- | --- | --- |
| 512 (≈ 973 µM) | 1020 (≈ 1950 µM) | 512 (≈ 973 µM) | 256 (≈ 486 µM) | 256 (≈ 486 µM) | 1020 (≈ 1950 µM) | 1020 (≈ 1950 µM) | 1020 (≈ 1950 µM) | 128 (≈ 243 µM) | 512 (≈ 973 µM) | NCc1ccc(-c2nn3c(-c4ccc(S(=O)(=O)c5ccc(Br)cc5)cc4)nnc3s2)cc1 |
| 512 (≈ 973 µM) | 1020 (≈ 1950 µM) | 512 (≈ 973 µM) | 1020 (≈ 1950 µM) | 256 (≈ 486 µM) | 512 (≈ 973 µM) | 1020 (≈ 1950 µM) | 1020 (≈ 1950 µM) | 512 (≈ 973 µM) | 128 (≈ 243 µM) | Cc1ccc(Nc2nn3c(-c4ccc(S(=O)(=O)c5ccc(Br)cc5)cc4)nnc3s2)cc1 |
| 512 (≈ 866 µM) | 512 (≈ 866 µM) | 128 (≈ 216 µM) | 1020 (≈ 1730 µM) | 128 (≈ 216 µM) | 512 (≈ 866 µM) | 1020 (≈ 1730 µM) | 512 (≈ 866 µM) | 512 (≈ 866 µM) | 128 (≈ 216 µM) | O=S(=O)(c1ccc(Br)cc1)c1ccc(-c2nnc3sc(Nc4ccc(Br)cc4)nn23)cc1 |
| 256 (≈ 444 µM) | 64 (≈ 111 µM) | 128 (≈ 222 µM) | 1020 (≈ 1780 µM) | 256 (≈ 444 µM) | 256 (≈ 444 µM) | 128 (≈ 222 µM) | 256 (≈ 444 µM) | 256 (≈ 444 µM) | 128 (≈ 222 µM) | O=S(=O)(c1ccc(Br)cc1)c1ccc(-c2nnc3sc(-c4ccc(Br)cc4)nn23)cc1 |
| 128 (≈ 241 µM) | 128 (≈ 241 µM) | 64 (≈ 120 µM) | 256 (≈ 481 µM) | 128 (≈ 241 µM) | 512 (≈ 963 µM) | 512 (≈ 963 µM) | 256 (≈ 481 µM) | 512 (≈ 963 µM) | 1020 (≈ 1930 µM) | O=S(=O)(c1ccc(Br)cc1)c1ccc(-c2nnc3sc(-c4ccc(Cl)cc4)nn23)cc1 |
| 512 (≈ 1180 µM) | 64 (≈ 148 µM) | 128 (≈ 295 µM) | 256 (≈ 591 µM) | 256 (≈ 591 µM) | 256 (≈ 591 µM) | 256 (≈ 591 µM) | 128 (≈ 295 µM) | 256 (≈ 591 µM) | 256 (≈ 591 µM) | Nc1ccc(-c2nn3c(-c4ccc(S(=O)(=O)c5ccccc5)cc4)nnc3s2)cc1 |
| 256 (≈ 500 µM) | 512 (≈ 999 µM) | 512 (≈ 999 µM) | 128 (≈ 250 µM) | 256 (≈ 500 µM) | 1020 (≈ 2000 µM) | 512 (≈ 999 µM) | 1020 (≈ 2000 µM) | 512 (≈ 999 µM) | 512 (≈ 999 µM) | Nc1ccc(-c2nn3c(-c4ccc(S(=O)(=O)c5ccc(Br)cc5)cc4)nnc3s2)cc1 |
| 512 (≈ 1030 µM) | 1020 (≈ 2060 µM) | 1020 (≈ 2060 µM) | 1020 (≈ 2060 µM) | 512 (≈ 1030 µM) | 512 (≈ 1030 µM) | 1020 (≈ 2060 µM) | 1020 (≈ 2060 µM) | 512 (≈ 1030 µM) | 1020 (≈ 2060 µM) | O=S(=O)(c1ccccc1)c1ccc(-c2nnc3sc(-c4ccc(Br)cc4)nn23)cc1 |
| 512 (≈ 1140 µM) | 512 (≈ 1140 µM) | 512 (≈ 1140 µM) | 1020 (≈ 2290 µM) | 256 (≈ 572 µM) | 512 (≈ 1140 µM) | 1020 (≈ 2290 µM) | 1020 (≈ 2290 µM) | 256 (≈ 572 µM) | 512 (≈ 1140 µM) | NCc1ccc(-c2nn3c(-c4ccc(S(=O)(=O)c5ccccc5)cc4)nnc3s2)cc1 |
| 128 (≈ 243 µM) | 512 (≈ 971 µM) | 512 (≈ 971 µM) | 256 (≈ 485 µM) | 256 (≈ 485 µM) | 1020 (≈ 1940 µM) | 512 (≈ 971 µM) | 256 (≈ 485 µM) | 512 (≈ 971 µM) | 512 (≈ 971 µM) | COc1ccc(-c2nn3c(-c4ccc(S(=O)(=O)c5ccc(Br)cc5)cc4)nnc3s2)cc1 |
| 64 (≈ 105 µM) | 32 (≈ 52.4 µM) | 32 (≈ 52.4 µM) | 128 (≈ 210 µM) | 64 (≈ 105 µM) | 256 (≈ 419 µM) | 1020 (≈ 1680 µM) | 512 (≈ 838 µM) | 32 (≈ 52.4 µM) | 256 (≈ 419 µM) | O=S(=O)(c1ccc(Br)cc1)c1ccc(-c2nnc3sc(-c4ccc(Cl)c(Br)c4)nn23)cc1 |

Continued, compound first:

| SMILES | MIC [1] [µg/mL] | MIC [2] [µg/mL] | MIC [3] [µg/mL] | MIC [4] [µg/mL] | MIC [5] [µg/mL] | MIC [6] [µg/mL] | MIC [7] [µg/mL] | MIC [8] [µg/mL] | MIC [9] [µg/mL] | MIC [10] [µg/mL] |
| --- | --- | --- | --- | --- | --- | --- | --- | --- | --- | --- |
| COc1ccc(-c2nn3c(-c4ccc(S(=O)(=O)c5ccccc5)cc4)nnc3s2)cc1 | 256 (≈ 571 µM) | 512 (≈ 1140 µM) | 512 (≈ 1140 µM) | 512 (≈ 1140 µM) | 512 (≈ 1140 µM) | 512 (≈ 1140 µM) | 512 (≈ 1140 µM) | 512 (≈ 1140 µM) | 256 (≈ 571 µM) | 512 (≈ 1140 µM) |
| CC1(C)S[C@@H]2[C@H](NC(=O)[C@H](N)c3ccccc3)C(=O)N2[C@H]1C(=O)O [AMPICILLIN] | < 2 | < 2 | < 2 | < 2 | – | – | – | – | – | – |
| O=S(=O)(c1ccc(Br)cc1)c1ccc(-c2nnc3sc(O)nn23)cc1 | 256 (≈ 585 µM) | 128 (≈ 293 µM) | 64 (≈ 146 µM) | 1020 (≈ 2340 µM) | 256 (≈ 585 µM) | 256 (≈ 585 µM) | 256 (≈ 585 µM) | 256 (≈ 585 µM) | 256 (≈ 585 µM) | 256 (≈ 585 µM) |
| COc1ccc(Nc2nn3c(-c4ccc(S(=O)(=O)c5ccccc5)cc4)nnc3s2)cc1 | 1020 (≈ 2210 µM) | 128 (≈ 276 µM) | 64 (≈ 138 µM) | 256 (≈ 552 µM) | 256 (≈ 552 µM) | 256 (≈ 552 µM) | 256 (≈ 552 µM) | 128 (≈ 276 µM) | 256 (≈ 552 µM) | 256 (≈ 552 µM) |
| O=S(=O)(c1ccccc1)c1ccc(-c2nnc3sc(-c4cc(O)c(O)c(O)c4)nn23)cc1 | 512 (≈ 1100 µM) | 512 (≈ 1100 µM) | 32 (≈ 68.6 µM) | 256 (≈ 549 µM) | 256 (≈ 549 µM) | 512 (≈ 1100 µM) | 1020 (≈ 2200 µM) | 1020 (≈ 2200 µM) | 128 (≈ 274 µM) | 512 (≈ 1100 µM) |
| Cc1ccc(Nc2nn3c(-c4ccc(S(=O)(=O)c5ccccc5)cc4)nnc3s2)cc1 | 1020 (≈ 2290 µM) | 512 (≈ 1140 µM) | 512 (≈ 1140 µM) | 1020 (≈ 2290 µM) | 256 (≈ 572 µM) | 512 (≈ 1140 µM) | 1020 (≈ 2290 µM) | 128 (≈ 286 µM) | 512 (≈ 1140 µM) | 256 (≈ 572 µM) |
| O=S(=O)(c1ccccc1)c1ccc(-c2nnc3sc(Nc4ccc(Br)cc4)nn23)cc1 | 1020 (≈ 2000 µM) | 512 (≈ 999 µM) | 1020 (≈ 2000 µM) | 1020 (≈ 2000 µM) | 256 (≈ 500 µM) | 512 (≈ 999 µM) | 1020 (≈ 2000 µM) | 512 (≈ 999 µM) | 512 (≈ 999 µM) | 1020 (≈ 2000 µM) |
| COc1ccc(Nc2nn3c(-c4ccc(S(=O)(=O)c5ccc(Br)cc5)cc4)nnc3s2)cc1 | 512 (≈ 944 µM) | 128 (≈ 236 µM) | 128 (≈ 236 µM) | 1020 (≈ 1890 µM) | 256 (≈ 472 µM) | 256 (≈ 472 µM) | 256 (≈ 472 µM) | 128 (≈ 236 µM) | 256 (≈ 472 µM) | 128 (≈ 236 µM) |
| O=S(=O)(c1ccc(Br)cc1)c1ccc(-c2nnc3sc(-c4cc(O)c(O)c(O)c4)nn23)cc1 | 256 (≈ 469 µM) | 128 (≈ 235 µM) | 64 (≈ 117 µM) | 256 (≈ 469 µM) | 128 (≈ 235 µM) | 256 (≈ 469 µM) | 128 (≈ 235 µM) | 128 (≈ 235 µM) | 128 (≈ 235 µM) | 512 (≈ 939 µM) |
| O=S(=O)(c1ccccc1)c1ccc(-c2nnc3sc(O)nn23)cc1 | 256 (≈ 714 µM) | 512 (≈ 1430 µM) | 128 (≈ 357 µM) | 1020 (≈ 2860 µM) | 256 (≈ 714 µM) | 256 (≈ 714 µM) | 512 (≈ 1430 µM) | 128 (≈ 357 µM) | 512 (≈ 1430 µM) | 256 (≈ 714 µM) |
| C[C@H]1[C@H](NC(=O)/C(=N\OC(C)(C)C(=O)O)c2csc(N)n2)C(=O)N1S(=O)(=O)O [AZTREONAM] | – | – | – | – | < 2 | – | < 2 | < 2 | 4 (≈ 9.19 µM) | – |
| C[C@@H]1[C@H](O)[C@@H](C)/C=C/C=C/C=C/C=C/C=C/C=C/C=C/[C@H](O[C@@H]2O[C@H](C)[C@@H](O)[C@H](N)[C@@H]2O)C[C@@H]2O[C@](O)(C[C@@H](O)C[C@@H](O)[C@H](O)CC[C@@H](O)C[C@@H](O)CC(=O)O[C@H]1C)C[C@H](O)[C@H]2C(=O)O [AMPHOTERICIN B] | – | – | – | – | – | – | – | – | – | 2 (≈ 2.16 µM) |
| O=S(=O)(c1ccccc1)c1ccc(-c2nnc3sc(-c4ccc(Cl)cc4)nn23)cc1 | 256 (≈ 565 µM) | 512 (≈ 1130 µM) | 512 (≈ 1130 µM) | 1020 (≈ 2260 µM) | 512 (≈ 1130 µM) | 512 (≈ 1130 µM) | 512 (≈ 1130 µM) | 512 (≈ 1130 µM) | 512 (≈ 1130 µM) | 512 (≈ 1130 µM) |
| O=S(=O)(c1ccccc1)c1ccc(-c2nnc3sc(-c4ccc(Cl)c(Br)c4)nn23)cc1 | 256 (≈ 481 µM) | 128 (≈ 241 µM) | 128 (≈ 241 µM) | 256 (≈ 481 µM) | 128 (≈ 241 µM) | 512 (≈ 963 µM) | 1020 (≈ 1930 µM) | 256 (≈ 481 µM) | 128 (≈ 241 µM) | 512 (≈ 963 µM) |
